Source: patent publication US20190322632A1, “HRI ACTIVATORS USEFUL FOR THE TREATMENT OF CARDIOMETABOLIC DISEASES” (UNIVERSITAT DE BARCELONA, priority 2016, published 2019)

Key:
[1] = test system: FGF21; experiment: FGF21 expression in hepatocytes (quantitative real-time RT-PCR); assay type: cell-based, human; conditions: Huh-7 hepatocytes, 24 h, 10 μM; FIG. 9
Protocol: Human Huh-7 hepatocytes were incubated for 24 h in the absence (Control, CT) or in the presence of compounds (10 μM). Assessment by quantitative real-time RT-PCR of FGF21. Data are presented as the mean±SD (n=4 per group). ***p<0.001 and **p<0.01 vs CT. ^###p<0.001, ^##p<0.01 and ^#p<0.05 vs BTCtFPU. ^††p<0.01 and ^†p<0.05 vs BTdCPU. BTCtFPU=1-(benzo[d][1,2,3]thiadiazol-6-yl)-3-(4-chloro-3-(trifluoromethyl)phenyl)urea (compound (3) in Chen T. et al., ibid.).

[2] = test system: eIF2α; experiment: eIF2α phosphorylation in human Huh-7 hepatic cells (Western-blot); assay type: cell-based; conditions: Huh-7 cells, 24 h, 10 μM, compared to BTdCPU; FIG. 3, FIG. 4
Excerpt: Data are presented as the mean±SD (n=4). **p<0.01 and *p<0.05 vs. control (CT) cells. ^##p<0.01 and ^#p<0.05 vs. BTdCPU-treated cells.
Data are presented as the mean±SD (n=4). *p<0.05 vs. control (CT) cells.
HRI is a kinase that phosphorylates eukaryotic Initiation Factor 2α (eIF-2a) at its Ser 51 residue to execute protein synthesis regulation and thereby HRI activators cause the phosphorylation of eIF2α as previously described (Chen T, et al., ibid). To confirm whether the new synthesized compounds were able to activate the HRI eIF2α kinase inventors examined the eIF2α phosphorylation caused by these compounds compared to the well-known HRI eIF2α kinase activator BTdCPU. Human Huh-7 hepatocytes were incubated for 24 h with vehicle (DMSO, CT cells) or 10 μM of each of the assayed compounds. eIF2α phosphorylation was determined by Western-blot.

[3] = molecular target: T1, HRI (Homo sapiens, UniProt Q9BQI3); experiment: HRI phosphorylation in human Huh-7 hepatic cells (Western-blot, ratio phosphorylated/total HRI); assay type: cell-based; conditions: Huh-7 cells, 24 h, 10 μM; for ratio phosphorylated/total HRI: vs vehicle (DMSO) control, FIG. 1, FIG. 2
T1 construct: endogenous in cells; host or cells: Huh-7 human hepatic cells
Excerpt: Data are presented as the mean±SD (n=4). *p<0.05 vs. control (CT) cells. ^#p<0.05 vs. BTdCPU-treated cells. BTdCPU=1-(benzo[d][1,2,3]thiadiazol-6-yl)-3-(3,4-dichlorophenyl)urea (compound (2) in Chen T. et al., ibid.).
Data are presented as the mean±SD (n=4). ***p<0.001 and *p<0.05 vs. control (CT) cells. ^#p<0.05 vs. BTdCPU-treated cells. Compound I-2 (1-(4-chloro-3-(trifluoromethyl)phenyl)-3-(4-chloro-3-(trifluoromethyl)phenyl)urea is not part of the present invention, but it has been introduced in some figures for comparative purposes.
HRI is activated by autophosphorylation and this has been used for evaluating its activation. In fact, the hyperphosphorylation of HRI is accompanied by an increase of its eIF2α kinase activity (cf. Lu L. et al., “Translation initiation control by heme-regulated eukaryotic initiation factor 2a kinase in erythroid cells under cytoplasmic stresses”, Mol. Cell. Biol., 2001, vol. 21, pp. 7971-7980). Therefore, HRI protein constitutively exists as the native nonphosphorylated 76-kDa species and/or the autoactivated/autophosphorylated 92-kDa, although the relative abundance of each HRI species tends to vary depending on the cells examined (cf. Acharya P. et al., “Hepatic heme-regulated inhibitor (HRI) eukaryotic initiation factor 2a kinase: A protagonist of heme-mediated translational control of CYP2B enzymes and a modulator of basal endoplasmic reticulum stress tone”, Mol. Pharmacol, 2010, vol. 77, pp. 575-592). […] Thus Huh-7 cells were incubated for 24 h with vehicle (DMSO, CT cells) or 10 μM of each of the assayed compound. The effects of these compounds were compared to the well-known HRI activator BTdCPU.

T1 sequence (Q9BQI3 whole entry): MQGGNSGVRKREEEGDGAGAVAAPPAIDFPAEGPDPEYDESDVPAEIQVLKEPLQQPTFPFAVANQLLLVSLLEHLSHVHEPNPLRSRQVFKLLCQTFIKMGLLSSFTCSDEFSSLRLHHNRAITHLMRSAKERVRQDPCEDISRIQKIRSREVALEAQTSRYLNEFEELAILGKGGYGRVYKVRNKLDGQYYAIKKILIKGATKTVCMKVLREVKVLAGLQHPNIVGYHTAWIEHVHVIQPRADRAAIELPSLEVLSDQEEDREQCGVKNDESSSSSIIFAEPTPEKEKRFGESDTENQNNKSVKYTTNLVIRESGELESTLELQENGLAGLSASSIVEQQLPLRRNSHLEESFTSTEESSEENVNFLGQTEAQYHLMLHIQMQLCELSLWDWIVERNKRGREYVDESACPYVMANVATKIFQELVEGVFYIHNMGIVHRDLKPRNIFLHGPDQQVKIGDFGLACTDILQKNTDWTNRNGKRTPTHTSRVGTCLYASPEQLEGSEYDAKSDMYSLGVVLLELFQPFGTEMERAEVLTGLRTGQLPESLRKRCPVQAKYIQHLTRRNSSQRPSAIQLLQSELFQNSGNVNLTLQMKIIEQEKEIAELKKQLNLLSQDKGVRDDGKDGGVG

| Compound | FGF21 expression compared with BTCtFPU [1] | FGF21 expression compared with BTdCPU [1] | melting point [°C] | eIF2α phosphorylation [2] | ratio phosphorylated/total HRI [3] | total HRI ([3]; FIG. 2) |
| --- | --- | --- | --- | --- | --- | --- |
| O=C(Nc1ccc(S(F)(F)(F)(F)F)cc1)Nc1cccc(S(F)(F)(F)(F)F)c1 [compound I-37, 1-(3-(Pentafluoro-λ^6-sulfanyl)phenyl)-3-(4-(pentafluoro-λ^6-sulfanyl)phenyl)urea] | significant higher increase than compound BTCtFPU | significant higher increase in FGF21 expression than compound BTdCPU | 216 to 217 |  |  |  |
| O=C(Nc1cccc(S(F)(F)(F)(F)F)c1)Nc1ccc2nnsc2c1 [compound I-26, 1-(Benzo[d][1,2,3]thiadiazol-6-yl)-3-(3-(pentafluoro-λ^6-sulfanyl)phenyl)urea] | higher expression in FGF21 than BTCtFPU | higher increase in FGF21 expression than that observed for compound BTdCPU | 229 to 230 | marked increase in eIF2α phosphorylation, higher than the observed with BTdCPU | increased the ratio phosphorylated/total HRI |  |
| O=C(Nc1ccc(Cl)c(S(F)(F)(F)(F)F)c1)Nc1ccc(Cl)c(S(F)(F)(F)(F)F)c1 [compound I-38, 1,3-Bis(4-chloro-3-(pentafluoro-λ^6-sulfanyl)phenyl)urea] | significant higher increase than compound BTCtFPU | significant higher increase in FGF21 expression than compound BTdCPU | 237 to 238 |  |  |  |
| O=C(Nc1cc(S(F)(F)(F)(F)F)ccc1Cl)Nc1cc(S(F)(F)(F)(F)F)ccc1Cl [compound I-32, 1,3-Bis(2-chloro-5-(pentafluoro-λ^6-sulfanyl)phenyl)urea] |  |  | 227 to 228 |  |  |  |
| O=C(Nc1ccc(Cl)c(S(F)(F)(F)(F)F)c1)Nc1ccc2nnsc2c1 [compound I-29, 1-(Benzo[d][1,2,3]thiadiazol-6-yl)-3-(4-chloro-3-(pentafluoro-λ^6-sulfanyl)phenyl)urea] |  | higher increase in FGF21 expression than that observed for compound BTdCPU | 213 to 214 | marked increase in eIF2α phosphorylation, higher than the observed with BTdCPU | increased the ratio phosphorylated/total HRI |  |
| O=C(Nc1ccc(Cl)c(C(F)(F)F)c1)Nc1cc(S(F)(F)(F)(F)F)ccc1Cl [compound I-33, 1-(4-Chloro-3-(trifluoromethyl)phenyl)-3-(2-chloro-5-(pentafluoro-λ^6-sulfanyl)phenyl)urea] |  |  | 156 to 157 | enhanced eIF2α phosphorylation to values similar to those achieved by BTdCPU exposure | increase caused by I-33 was also statistically significant | reduction in total HRI |
| O=C(Nc1ccc2nnsc2c1)Nc1cc(S(F)(F)(F)(F)F)ccc1Cl [compound I-27, 1-(Benzo[d][1,2,3]thiadiazol-6-yl)-3-(2-chloro-5-(pentafluoro-λ^6-sulfanyl)phenyl)urea] |  |  | 227 | marked increase in eIF2α phosphorylation, higher than the observed with BTdCPU | increased the ratio phosphorylated/total HRI |  |
| O=C(Nc1ccc2nnsc2c1)Nc1cccc(S(F)(F)(F)(F)F)c1Cl [compound I-28, 1-(Benzo[d][1,2,3]thiadiazol-6-yl)-3-(2-chloro-3-(pentafluoro-λ^6-sulfanyl)phenyl)urea] |  |  | 225 | marked increase in eIF2α phosphorylation, higher than the observed with BTdCPU | increased the ratio phosphorylated/total HRI |  |
| O=C(Nc1ccc(S(F)(F)(F)(F)F)cc1)Nc1ccc2nnsc2c1 [compound I-25, 1-(Benzo[d][1,2,3]thiadiazol-6-yl)-3-(4-(pentafluoro-λ^6-sulfanyl)phenyl)urea] |  |  | 274 to 275 |  | increased the ratio phosphorylated/total HRI |  |
| O=C(Nc1cccc(S(F)(F)(F)(F)F)c1)Nc1cccc(S(F)(F)(F)(F)F)c1 [compound I-36, 1,3-Bis(3-(pentafluoro-λ^6-sulfanyl)phenyl)urea] | significant higher increase than compound BTCtFPU | significant higher increase in FGF21 expression than compound BTdCPU |  |  |  |  |
